Measurements as given in patent publication US8101612B2, “Phthalazine compounds and methods of use” (Amgen Inc., priority 2006, dated 2012).

Experiments:
[1] = AA5225_IC50_IP (Table 4, assay code not explained); settings: internal assay code
[2] = AA2734_IC50_IP (Table 4, assay code not explained); settings: internal assay code

Compound | IC50 [1] [nM] | IC50 [2] [nM]
Cc1ccc(C(=O)NC2CC2)cc1-c1ccc2c(C3(C(F)(F)F)CC3)nncc2c1 [Example 225, N-cyclopropyl-4-methyl-3-(1-(1-(trifluoromethyl)cyclopropyl)-6-phthalazinyl)benzamide] | 0.968 | 0.148
Cc1ccc(C(=O)Nc2ccnn2C)cc1-c1ccc2c(C3(C(F)(F)F)CC3)nncc2c1 [Example 226, 4-methyl-N-(1-methyl-1H-pyrazol-5-yl)-3-(1-(1-(trifluoromethyl)cyclopropyl)-6-phthalazinyl)benzamide] | 1.12 | 0.173
Cc1ccc(C(=O)NC2CC2)cc1-c1ccc2c([C@@H](C)C(F)(F)F)nncc2c1 [Example 227a, N-cyclopropyl-4-methyl-3-(1-((1R)-2,2,2-trifluoro-1-methylethyl)-6-phthalazinyl)benzamide] | 1.08 | 0.455
Cc1ccc(C(=O)NC2CC2)cc1-c1ccc2c([C@@](C)(O)C(F)(F)F)nncc2c1 [Example 229, N-cyclopropyl-4-methyl-3-(1-((1R)-2,2,2-trifluoro-1-hydroxy-1-methylethyl)-6-phthalazinyl)benzamide] | 0.599 | 0.383
Cc1ccc(C(=O)NC2CC2)cc1-c1ccc2c([C@](C)(O)C(F)(F)F)nncc2c1 [Example 230, N-cyclopropyl-4-methyl-3-(1-((1S)-2,2,2-trifluoro-1-hydroxy-1-methylethyl)-6-phthalazinyl)benzamide] | 0.643 | 0.364
Cc1ccc(C#N)cc1-c1ccc2c(O[C@H](C)C(F)(F)F)nncc2c1 [Example 231, 4-methyl-3-(1-(((1R)-2,2,2-trifluoro-1-methylethyl)oxy)-6-phthalazinyl)benzonitrile] | 80.8 | 33.3
Cc1ccc(C#N)cc1-c1ccc2c(O)nncc2c1 [Example 232, 3-(1-hydroxy-6-phthalazinyl)-4-methylbenzonitrile] | 1.33 | 
Cc1ccc(C(=O)NC2CC2)cc1-c1ccc2c(-c3ccc(S(=O)(=O)C(F)(F)F)cc3C)nncc2c1 [Example 233, N-cyclopropyl-4-methyl-3-(1-(2-methyl-4-((trifluoromethyl)sulfonyl)phenyl)-6-phthalazinyl)benzamide] | 0.62 | 2.89
Cc1ccc(C(=O)Nc2ccnn2C)cc1-c1ccc2c(C(C)(O)C(F)(F)F)nncc2c1 (stereo not drawn) [Example 243, 4-methyl-N-(1-methyl-1H-pyrazol-5-yl)-3-(1-(2,2,2-trifluoro-1-hydroxy-1-methylethyl)-6-phthalazinyl)benzamide] | 1.33 | 
Cc1ccc(C(=O)NC2CC2)cc1-c1ccc2c(C(C)(O)C(F)(F)F)nncc2c1 (stereo not drawn) [Example 244, N-cyclopropyl-4-methyl-3-(1-(2,2,2-trifluoro-1-hydroxy-1-methylethyl)-6-phthalazinyl)benzamide] | 0.952 | 0.434
Cc1ccc(C(=O)O)cc1-c1ccc2c(C(C)(C)O)nncc2c1 [Example 247, 3-(1-(1-hydroxy-1-methylethyl)-6-phthalazinyl)-4-methylbenzoic acid] | 1000 | 
[2H]c1c([2H])c(C(=O)NC2CC2)c([2H])c(-c2ccc3c(OC(C)C(F)(F)F)nncc3c2)c1C (stereo not drawn) [Example 259, N-cyclopropyl-4-methyl-3-(1-((2,2,2-trifluoro-1-methylethyl)oxy)-6-phthalazinyl)benzamide-d 3] | 0.991 | 1.7

Second part, the compound after the results:

IC50 [1] [nM] | IC50 [2] [nM] | Compound
0.812 | 0.826 | Cc1ccc(C(=O)NC2CC2)cc1-c1ccc2c(C(C)(C)O)nncc2c1 [Example 248, N-cyclopropyl-3-(1-(1-hydroxy-1-methylethyl)-6-phthalazinyl)-4-methylbenzamide]
1.14 | 0.334 | Cc1ccc(C(=O)Nc2ccnn2C)cc1-c1ccc2c(C(C)(C)F)nncc2c1 [Example 249, 3-(1-(1-fluoro-1-methylethyl)-6-phthalazinyl)-4-methyl-N-(1-methyl-1H-pyrazol-5-yl)benzamide]
0.954 | 0.296 | Cc1ccc(C(=O)Nc2ccnn2C)cc1-c1ccc2c([C@](C)(O)C(F)(F)F)nncc2c1 [Example 250, 4-methyl-N-(1-methyl-1H-pyrazol-5-yl)-3-(1-((1S)-2,2,2-trifluoro-1-hydroxy-1-methylethyl)-6-phthalazinyl)benzamide]
0.913 | 0.2 | Cc1ccc(C(=O)Nc2ccnn2C)cc1-c1ccc2c([C@@](C)(O)C(F)(F)F)nncc2c1 [Example 251, 4-methyl-N-(1-methyl-1H-pyrazol-5-yl)-3-(1-((1R)-2,2,2-trifluoro-1-hydroxy-1-methylethyl)-6-phthalazinyl)benzamide]
0.745 | 0.242 | Cc1ccc(C(=O)NC2CC2)cc1-c1ccc2c(C(C)(C)F)nncc2c1 [Example 252, N-cyclopropyl-3-(1-(1-fluoro-1-methylethyl)-6-phthalazinyl)-4-methylbenzamide]
0.696 | 0.168 | Cc1c(F)cc(C(=O)NC2CC2)cc1-c1ccc2c(C(C)(C)F)nncc2c1 [Example 253, N-cyclopropyl-3-fluoro-5-(1-(1-fluoro-1-methylethyl)-6-phthalazinyl)-4-methylbenzamide]
0.769 | 0.501 | Cc1c(F)cc(C(=O)NC2CC2)cc1-c1ccc2c(O[C@H](C)C(F)(F)F)nncc2c1 [Example 254, N-cyclopropyl-3-fluoro-4-methyl-5-(1-(((1R)-2,2,2-trifluoro-1-methylethyl)oxy)-6-phthalazinyl)benzamide]
0.592 | 0.307 | Cc1c(F)cc(C(=O)NC2CC2)cc1-c1ccc2c(O[C@@H](C)C(F)(F)F)nncc2c1 [Example 255, N-cyclopropyl-3-fluoro-4-methyl-5-(1-(((1S)-2,2,2-trifluoro-1-methylethyl)oxy)-6-phthalazinyl)benzamide]
1.03 | 0.18 | Cc1ccc(C(=O)NC2CC2)cc1-c1ccc2c([C@H](C)C(F)F)nncc2c1 [Example 256, N-cyclopropyl-3-(1-((1S)-2,2-difluoro-1-methylethyl)-6-phthalazinyl)-4-methylbenzamide]
1.02 | 0.813 | CCNC(=O)c1ccc(C)c(-c2ccc3c(O[C@@H](C)C(F)(F)F)nncc3c2)c1 [Example 257, N-ethyl-4-methyl-3-(1-(((1S)-2,2,2-trifluoro-1-methylethyl)oxy)-6-phthalazinyl)benzamide]
 | 1.75 | CNC(=O)c1ccc(C)c(-c2ccc3c(O[C@@H](C)C(F)(F)F)nncc3c2)c1 [Example 258, N,4-dimethyl-3-(1-(((1S)-2,2,2-trifluoro-1-methylethyl)oxy)-6-phthalazinyl)benzamide]
